Laboratory results as given in patent publication US20230159527A1, “COMPOUNDS AS BCL-2 INHIBITORS” (Fochon Pharmaceuticals, Ltd., priority 2020, published 2023).

What follows are compounds tested on Toledo cells (assay: Cell proliferation assay, Toledo cells (MTS, 72 h)). Conditions: Homo sapiens, Toledo cells, MTS, read-out: Toledo IC50.
Format: cell-based
Description: MTS testing kit was purchased from Promega (Madison, Wis., USA). The RPMI-1640, Fetal bovine serum and Penicillin-Streptomycin were purchased from BI (Biological Industries, Beit Haemek, Israel). Dimethyl sulfoxide (DMSO) was purchased from Sigma (St. Louis, Mo., USA). Toledo (ATCC catalog #: CRL-2631) cells were cultured in RPMI-1640 supplemented with Penicillin-Streptomycin and 10% FBS.
To investigate whether a compound is able to inhibit the activity of BCL-2 in cells, a mechanism-based assay using Toledo lines was developed. In this assay, the inhibition of BCL-2 was reflected by the inhibition of cell proliferation of Toledo cells. Cells were plated into 96-well plates at the optimized cell density of 30000 cells/well. Plates were incubated at 37° C., with 5% CO2 for 4h. Compounds were serially diluted and added to the plates with the final concentrations of 10000, 3333.3, 1111.1, 370.4, 123.5, 41.2, 13.7, 4.6 and 1.5 nM. Plates were incubated at 37° C., with 5% CO2 for 72 h. 20 μl MTS was added into each well and the plates were incubated at 37° C., with 5% CO2 for exactly 2 h. The absorbance was measured by a microplate reader at 490 nm. IC50 was calculated using GraphPad Prism 5.0 software.

Structure (SMILES)	IC50 [nM]
CC(C)c1ccccc1[C@@H]1CCCN1C1CC2(CCN(c3ccc(C(=O)NS(=O)(=O)c4cc5c(c([N+](=O)[O-])c4)N[C@@H]([C@H]4CC[C@H](O)CC4)CO5)c(Oc4cnc5[nH]cc(F)c5c4)c3)CC2)C1 (single isomer, unassigned) [Example D-41, 2-((3-fluoro-1H-pyrrolo[2,3-b]pyridin-5-yl)oxy)-N-(((S)-3-((1r,4S)-4-hydroxycyclohexyl)-5-nitro-3,4-dihydro-2H-benzo[b][1,4]oxazin-7-yl)sulfonyl)-4-(2-((R or S)-2-(2-isopropylphenyl)pyrrolidin-1-yl)-7-azaspiro[3.5]nonan-7-yl)benzamide]	1
CC(C)c1ccccc1[C@@H]1CCCN1C1CC2(CCN(c3ccc(C(=O)NS(=O)(=O)c4cc5c(c([N+](=O)[O-])c4)N[C@@H]([C@H]4CC[C@](C)(O)CC4)CO5)c(Oc4cc5cc[nH]c5nc4N4CCOCC4)c3)CC2)C1 (single isomer, unassigned) [Example D-57, N-(((S)-3-((1r,4S)-4-hydroxy-4-methylcyclohexyl)-5-nitro-3,4-dihydro-2H-benzo[b][1,4]oxazin-7-yl)sulfonyl)-4-(2-((R or S)-2-(2-isopropylphenyl)pyrrolidin-1-yl)-7-azaspiro[3.5]nonan-7-yl)-2-((6-morpholino-1H-pyrrolo [2,3-b]pyridin-5-yl)oxy)benzamide]	1
CO[C@H]1CC[C@@H]([C@@H]2COc3cc(S(=O)(=O)NC(=O)c4ccc(N5CCC6(CC5)CC(N5CCC[C@H]5c5ccccc5C(C)C)C6)cc4Oc4cnc5[nH]cc(F)c5c4)cc([N+](=O)[O-])c3N2)CC1 (single isomer, unassigned) [Example D-46, 2-((3-fluoro-1H-pyrrolo[2,3-b]pyridin-5-yl)oxy)-4-(2-((R or S)-2-(2-isopropylphenyl)pyrrolidin-1-yl)-7-azaspiro[3.5]nonan-7-yl)-N-(((R)-3-((1s,4S)-4-methoxycyclohexyl)-5-nitro-3,4-dihydro-2H-benzo[b][1,4]oxazin-7-yl)sulfonyl)benzamide]	1
CC(C)Oc1nc2[nH]ccc2cc1Oc1cc(N2CCC3(CC2)CC(N2CCC[C@H]2c2ccccc2C(C)C)C3)ccc1C(=O)NS(=O)(=O)c1cc2c(c([N+](=O)[O-])c1)N[C@@H]([C@H]1CC[C@](C)(O)CC1)CO2 (single isomer, unassigned) [Example D-66, N-(((S)-3-((1r,4S)-4-hydroxy-4-methylcyclohexyl)-5-nitro-3,4-dihydro-2H-benzo[b][1,4]oxazin-7-yl)sulfonyl)-2-((6-isopropoxy-1H-pyrrolo[2,3-b]pyridin-5-yl)oxy)-4-(2-((R or S)-2-(2-isopropylphenyl)pyrrolidin-1-yl)-7-azaspiro[3.5]nonan-7-yl)benzamide]	1
CC(C)c1ccccc1[C@@H]1CCC[C@@H]1N1CC2(CCN(c3ccc(C(=O)NS(=O)(=O)c4ccc(NC[C@H]5CC[C@](C)(O)CC5)c([N+](=O)[O-])c4)c(Oc4cc5cc[nH]c5nc4OC[C@@H]4COCCO4)c3)CC2)C1 (single isomer, unassigned) [Example D-236, 2-((6-(((S)-1,4-dioxan-2-yl)methoxy)-1H-pyrrolo[2,3-b]pyridin-5-yl)oxy)-N-((4-(((1r,4r)-4-hydroxy-4-methylcyclohexyl)methyl)amino)-3-nitrophenyl)sulfonyl)-4-(2-((1S,2S or 1R,2R)-2-(2-isopropylphenyl)cyclopentyl)-2,7-diazaspiro[3.5]nonan-7-yl)benzamide]	1
CC(C)c1ccccc1C1(O)CCCC1N1CC2(CCN(c3ccc(C(=O)NS(=O)(=O)c4cc5c(c([N+](=O)[O-])c4)N[C@@H]([C@H]4CC[C@](C)(O)CC4)CO5)c(Oc4cnc5[nH]cc(F)c5c4)c3)CC2)C1 (stereo partly drawn) [Example D-247, 2-((3-fluoro-1H-pyrrolo[2,3-b]pyridin-5-yl)oxy)-4-(2-(2-hydroxy-2-(2-isopropylphenyl)cyclopentyl)-2,7-diazaspiro[3.5]nonan-7-yl)-N-(((S)-3-((1r,4S)-4-hydroxy-4-methylcyclohexyl)-5-nitro-3,4-dihydro-2H-benzo[b][1,4]oxazin-7-yl)sulfonyl)benzamide]	1
CC(C)c1ccccc1[C@@H]1CCCN1C1CC2(CCN(c3ccc(C(=O)NS(=O)(=O)c4cc5c(c([N+](=O)[O-])c4)N[C@@H]([C@H]4CC[C@](C)(O)CC4)CO5)c(Oc4cc5cc[nH]c5nc4OC[C@@H]4CCCN4)c3)CC2)C1 (single isomer, unassigned) [Example D-218, N-(((S)-3-((1r,4S)-4-hydroxy-4-methylcyclohexyl)-5-nitro-3,4-dihydro-2H-benzo[b][1,4]oxazin-7-yl)sulfonyl)-4-(2-((R or S)-2-(2-isopropylphenyl)pyrrolidin-1-yl)-7-azaspiro[3.5]nonan-7-yl)-2-((6-(((S)-pyrrolidin-2-yl)methoxy)-1H-pyrrolo[2,3-b]pyridin-5-yl)oxy)benzamide]	1
CC(C)c1ccccc1[C@@H]1CCCN1C1CC2(CCN(c3ccc(C(=O)NS(=O)(=O)c4cc5c(c([N+](=O)[O-])c4)N[C@@H]([C@H]4CC[C@](C)(O)CC4)CO5)c(Oc4cc5c(F)c[nH]c5nc4O[C@@H]4CCOC4)c3)CC2)C1 (single isomer, unassigned) [Example D-220, 2-((3-fluoro-6-(((R)-tetrahydrofuran-3-yl)oxy)-1H-pyrrolo[2,3-b]pyridin-5-yl)oxy)-N-((S)-3-((1r,4S)-4-hydroxy-4-methylcyclohexyl)-5-nitro-3,4-dihydro-2H-benzo [b][1,4]oxazin-7-yl)sulfonyl)-4-(2-((R or S)-2-(2-isopropylphenyl)pyrrolidin-1-yl)-7-azaspiro[3.5]nonan-7-yl)benzamide]	1
CC(C)c1ccccc1[C@@H]1CCC[C@@H]1N1CC2(CCN(c3ccc(C(=O)NS(=O)(=O)c4cc5c(c([N+](=O)[O-])c4)N[C@@H]([C@H]4CC[C@](C)(O)CC4)CO5)c(Oc4cc5cc[nH]c5nc4OC4COC4)c3)CC2)C1 (single isomer, unassigned) [Example D-108, N-(((S)-3-((1r,4S)-4-hydroxy-4-methylcyclohexyl)-5-nitro-3,4-dihydro-2H-benzo[b][1,4]oxazin-7-yl)sulfonyl)-4-(2-((1S,2S or 1R,2R)-2-(2-isopropylphenyl)cyclopentyl)-2,7-diazaspiro[3.5]nonan-7-yl)-2-((6-(oxetan-3-yloxy)-1H-pyrrolo[2,3-b]pyridin-5-yl)oxy) benzamide]	1
CC(C)c1ccccc1[C@@H]1CSCCN1C1CC2(CCN(c3ccc(C(=O)NS(=O)(=O)c4cc5c(c([N+](=O)[O-])c4)N[C@@H]([C@H]4CC[C@](C)(O)CC4)CO5)c(Oc4cnc5[nH]cc(F)c5c4)c3)CC2)C1 (single isomer, unassigned) [Example D-78, 2-((3-fluoro-1H-pyrrolo[2,3-b]pyridin-5-yl)oxy)-N-(((S)-3-((1r,4S)-4-hydroxy-4-methylcyclohexyl)-5-nitro-3,4-dihydro-2H-benzo[b] [1,4]oxazin-7-yl)sulfonyl)-4-(2-((R or S)-3-(2-isopropylphenyl)thiomorpholino)-7-azaspiro[3.5]nonan-7-yl)benzamide]	1
CC(C)c1ccccc1[C@H]1CCCN1C1CC2(CCN(c3ccc(C(=O)NS(=O)(=O)c4cc5c(c([N+](=O)[O-])c4)NC([C@@H]4COCCO4)CO5)c(Oc4cnc5[nH]cc(F)c5c4)c3)CC2)C1 (single isomer, unassigned) [Example D-49a, N-(((R or S)-3-((R)-1,4-dioxan-2-yl)-5-nitro-3,4-dihydro-2H-benzo[b][1,4]oxazin-7-yl)sulfonyl)-2-((3-fluoro-1H-pyrrolo[2,3-b]pyridin-5-yl)oxy)-4-(2-((R or S)-2-(2-isopropylphenyl)pyrrolidin-1-yl)-7-azaspiro[3.5]nonan-7-yl)benzamide]	1
CC(C)c1ccccc1[C@@H]1CCCN1C1CC2(CCN(c3ccc(C(=O)NS(=O)(=O)c4cc5c(c([N+](=O)[O-])c4)N[C@@H]([C@H]4CC[C@](C)(O)CC4)CO5)c(Oc4cc5c(F)c[nH]c5nc4Cl)c3)CC2)C1 (single isomer, unassigned) [Example D-84, 2-((6-chloro-3-fluoro-1H-pyrrolo [2,3-b]pyridin-5-yl)oxy)-N-(((S)-3-((1r,4S)-4-hydroxy-4-methylcyclohexyl)-5-nitro-3,4-dihydro-2H-benzo[b][1,4]oxazin-7-yl)sulfonyl)-4-(2-((R or S)-2-(2-isopropylphenyl)pyrrolidin-1-yl)-7-azaspiro[3.5]nonan-7-yl)benzamide]	1
CC(C)c1ccccc1[C@@H]1CCCN1C1CC2(CCN(c3ccc(C(=O)NS(=O)(=O)c4cc5c(c([N+](=O)[O-])c4)N[C@@H]([C@H]4CC[C@](C)(O)CC4)CO5)c(Oc4cc5cc[nH]c5nc4OC[C@@H](C)O)c3)CC2)C1 (single isomer, unassigned) [Example D-69, N-(((S)-3-((1r,4S)-4-hydroxy-4-methylcyclohexyl)-5-nitro-3,4-dihydro-2H-benzo[b][1,4]oxazin-7-yl)sulfonyl)-2-((6-((7)-2-hydroxypropoxy)-1H-pyrrolo[2,3-b]pyridin-5-yl)oxy)-4-(2-((R or S)-2-(2-isopropylphenyl)pyrrolidin-1-yl)-7-azaspiro[3.5]nonan-7-yl)benzamide]	1
